Data as given in patent US20050019746A1, “Apoptosis-related kinase/GPCRs” (EiRx Therapeutics Limited, priority 2003, published 2005).

How the values were obtained:
[1] = tested on: human primary neutrophils; test: Neutrophil apoptosis by sub G1 analysis (DNA fragmentation); type: cell-based; conditions: neutrophils cultured overnight with GM-CSF (65% without)
Protocol: Neutrophils are isolated from the blood as described in WO 02/04657 and resuspended at a concentration of 2×10^6/ml. Five hundred microlitres are pipetted into wells of a 24 well plate and incubated in the presence or absence of survival factors.
After this incubation, the neutrophils are carefully resuspended by gentle agitation and the total contents of the well are placed into an eppendorf and centrifuged@2800 rpm for 2 min@RT in a minifuge. The cell pellet is carefully resuspended in 300 μl of ice cold hypotonic fluorochrome solution (50 μg/ml Propidium Iodide, 0.1% Sodium Citrate and 0.1% Triton X-100) and placed in a fridge for 24 h@4° C.
Prepared samples are analysed with a FacsCalibre flow cytometer (Becton Dickinson) using double discrimination to ensure single cell suspension with Log Forward and Side Scatter Parameter acquisition.
(§1) Neutrophils are seeded at 2×10^6/ml in a 24 well plate in full culture medium (1 ml/well). A PI3K inhibitor (Ly294002) is added to the neutrophils to a final concentration of 20 μM prior to the addition of GM-CSF (50 units/ml). Control wells received either no GM-CSF or F GM-CSF (50 units/ml) in the absence of inhibitor. Neutrophils are cultured for 18 h at 37° C. prior to harvest and prepared for sub G1 analysis, as previously described.
as §1, with “An AKT” for “A PI3K”, “([1L-6-Hydroxymethyl-chiro-inositol 2-O-methyl-3-O-octadecylcarbonate] (Calbiochem))” for “(Ly294002)”, “μM and incubated for 2 h” for “μM”, “receive” for “received”, “or” for “or F”

TF1 cells [2] = test: TF1 apoptosis by light scatter (FSC/SSC, live gate) analysis; type: cell-based, human; conditions: TF1, 48 h, with GM-CSF 2 ng/ml (35% upon factor withdrawal)
Protocol: Light Scatter Analysis takes advantage of the fact that by using the laser beam of a flow cytometer one can determine the size (Forward Scatter) and granularity (Side Scatter) of a cell. The morphological changes associated with apoptosis, such as decreased size (shrinkage) and granularity affect these parameters. As a consequence, cells undergoing apoptosis will move to the left and slightly down, from the parameters of a healthy population.
TF1 cells are plated into 24 well plates (2×10^5/ml) and are cultured for 48 h in the presence or absence of GM-CSF (2 ng/ml). Cells are then harvested by centrifugation (1000 rpm, for 10 min) and washed in PBS. […] Forward and Side scatter parameters are assessed using Cell Quest software.
Culturing TF1 cells in the absence of GM-CSF induces cell death. This death induces morphological changes in the Forward and Side Scatter parameters that can be detected by FacsCalibre analysis. […]
To assess the antiapoptotic effect of BCL2 over-expression in TF1 cells, cells are transduced with either retrovirus expressing full length BCL2 coding sequence or control vector lacking BCL2. […] The percentage of transduced cells remaining in the live gate (an arbitrary region pre-set on a healthy population of TF1 cells grown in the presence of GM-CSF (2 ng/ml)) is recorded. An index of antiapoptotic activity is calculated by computing the difference in samples ±GMCSF. […]

TF1 cells [3] = test: TF1 apoptosis by sub G1 analysis; type: cell-based, human; conditions: TF1, 48 h, with GM-CSF (approximately 55% in the absence)
Protocol: TF1 cells are cultured for 48 h in the presence or absence of GM-CSF (2 ng/ml). Cells are then harvested by centrifugation (1000 rpm, for 10 min) and washed in PBS. The pellet is resuspended in PBS (2×10^5 cells/ml) and 1 ml is then added in a dropwise fashion to ice cold 70% EtoH whilst continuously vortexing. Cells are then permeabilized by incubating at −20° C. for 24 h. To stain DNA, cells are centrifuged and washed in PBS. Cells are resuspended in 500 μl Propidium Iodide Buffer (Propidium iodide (50 μg/ml); RNAse A (50 μg/ml) for 15 min in the dark before flow cytometric analysis using a FacsCalibre (Becton Dickinson). Analysis is performed using Cell Quest software.

A549 cells = test: Anchorage Independence/Soft Agar Assay, A549; type: cell-based, human; parameters: PERCENTAGE SURVIVAL RELATIVE TO MS, A549, n = 2: tested at 2 µg; conditions: soft agar
Protocol: (§2) The Anchorage Independence/Soft Agar Assay allows assessment of the influence of modulation of gene expression on clonal tumouroid formation by observing and quantifying tumouroid morphology and colony number over an extended period of logarithmic growth thereby ascertaining any cell death is induced.
(§3) Cells are seeded into a 6-well plate and allowed to adhere overnight at 37° C. in a humidified atmosphere containing 5% CO2 in air. Cells are next transfected with siRNA Oligomers, at a concentration of 2 μg, against the genes of interest. Transfections continued for 4 hrs after which the transfection solution is removed and cells are refed with fresh medium and allowed incubate overnight. Transfected cells are next harvested for seeding into soft agar assay as described below. Cells are seeded at 5×10^4 cells per well of a 6 well plate and incubated over a 12/14-Day period whilst proliferating in a 0.05% Agar/Medium cell suspension at 37° C. in a humidified atmosphere containing 5% CO2 in air. Colonies formed are subsequently stained with Crystal Violet, their morphology is assessed and colonies formed are enumerated at a 4× magnification.
(§4) The cytotoxic effect of each gene is determined by a reduction in colony number compared to our MS control, but any influence on the morphology of the colony is also noted.
(§5) Examples of genes with a cytotoxic effect on knockdown as detected by the soft agar assay are outlined in Table 14. Table 14 gives the percentage survival of the indicated cell lines post transfection with siRNA oligomers to target genes relative to that of the missense in an anchorage independent assay. As an internal reference, the known survival gene Survivin was also targeted by siRNA. This table illustrates the magnitude of cytotoxicity induced by the knockdown of each target gene compared to the MS control i.e. the number of colonies formed are stained with Crystal violet and enumerated visually as discussed.

HCT15 cells = test: Anchorage Independence/Soft Agar Assay, HCT15; type: cell-based, human; parameters: PERCENTAGE SURVIVAL RELATIVE TO MS, HCT15, n = 2: tested at 2 µg; PERCENTAGE SURVIVAL RELATIVE TO MS, HCT15, n = 1: tested at 2 µg siRNA; conditions: soft agar
Protocol: as §2, §3, §4, §5

MCF7 cells = test: Anchorage Independence/Soft Agar Assay, MCF7; type: cell-based, human; parameters: PERCENTAGE SURVIVAL RELATIVE TO MS, MCF7, n = 2: tested at 2 µg; conditions: soft agar
Protocol: as §2, §3, §4, §5

U251 cells = test: Anchorage Independence/Soft Agar Assay, U251; type: cell-based, human; conditions: soft agar, experiment n = 1
Protocol: as §2
as §3, with “Cells are seeded at 5×10^4 cells per well of a 6 well plate and incubated over a 12/14-Day period whilst proliferating in a 0.05% Agar/Medium cell suspension at 37° C. in a humidified atmosphere containing 5% CO2 in air.” left out
as §4
(§6) Examples of genes with a cytotoxic effect on knockdown as detected by the soft agar assay are outlined in Table 14. […]

PC3 cells [4] = test: Anchorage Independence/Soft Agar Assay, PC3; type: cell-based, human; conditions: soft agar, experiment n = 1
Protocol: as §2
as §3, with “Cells are seeded at 5×10^4 cells per well of a 6 well plate and incubated over a 12/14-Day period whilst proliferating in a 0.05% Agar/Medium cell suspension at 37° C. in a humidified atmosphere containing 5% CO2 in air.” left out
as §4, §6

cancer cell lines = test: Anchorage Independence/Soft Agar Assay, summary over the cell lines; type: cell-based, human; conditions: 14-day anchorage independent assay, over the cell lines examined
Protocol: as §2, §3, §4
As an internal reference, the known survival gene ‘Survivin’ was also targeted by siRNA.

PC3 cells [5] = test: Cell Migration Assay (Chemicon ECM550, Boyden Chamber); type: cell-based, human; conditions: 48 hours post siRNA transfection, 24-hour migration, compared to missense and UPA controls
Protocol: Cells are seeded into a 6-well plate and allowed to adhere overnight at 37° C. in a humidified atmosphere containing 5% CO2 in air. Cells are next transfected with siRNA oligonucleotides, at a concentration of 2 μg/ml, against the genes of interest, as described in detail in Example 5. Transfections are continued for 4 hrs after which the transfection solution is removed and cells are refed with fresh medium and allowed incubate overnight. Transfected cells are next harvested for seeding into migration assay as described below.
The Chemicon Cell Migration Assay (ECM550) is used to quantify the number of PC3 cells that successfully migrate across a Boyden Chamber towards a chemoattractant over a 24-hour incubation period. Assessment of PC3 cell migration is performed routinely 48 hours post siRNA Transfection. The effect of reducing the expression of genes of interest is compared to that of a missense control oligomer and to the influence of UPA knockdown, which is reported in the literature to decrease PC3 cell migration. The Migration Assay is performed as per manufacturers inductions. Results are illustrated in FIGS. 39 to 41.
Cells were plated and transfected with the indicated siRNA as described above. Migration of PC3 cells was tracked using a fluorescent dye. Consequently increases in fluorescent units correlates positively with increased migration.

[6] = tested on: OAS1 and GBP1 mRNA in HCT15, A549, SKOV3, DU145, PC3, A498, U251 cells; test: Interferon response genes mRNA by QPCR after siRNA transfection; type: cell-based, human; conditions: compared to untransfected cells
Source text: Inhibiting gene expression using siRNA has been associated with non-specific induction of interferon from target cells (Sledz C A et al. Nat Cell Biol. September 2003; 5(9): 834-9. 2003). Since induction of interferon may possibly affect biological assays, we control for the effect of our siRNA oligonucleotides on inducing interferon. This is examined by quantitating message RNA levels for two interferon responsive genes, namely OAS1, and GBP1, both before and after siRNA transfection.
QPCR Primers, designed by MWG Biotech as described previously, are as follows.
The levels of expression of OAS1 and GBP1 in siRNA-transfected cells are expressed as a percentage of that in untransfected control cells.

ELAV-1 = test: Validation of missense control siRNA on ELAV-1 expression; type: cell-based; conditions: missense control with 4 base pair mismatch substitutions
Source text: The missense control outlined above is designed by introducing 4 base pair mismatch substitutions into the siRNA oligo sequence for ELAV-1 (Accession number xm—008947; gi 1475941).

## GM-CSF: a 22 kDa proinflammatory cytokine; survival factor for neutrophils and TF1 cells
[1]
  percentage of cells with a sub G1 profile: 9.7%
TF1 cells [2]
  percentage of cells in the live gate: 77%
TF1 cells [3]
  cells with sub-G1 profiles: 5%

## siRNA CNK/PRK: sense UCGUAGUGCUUGUACUUACtt, antisense GUAAGUACAAGCACUACGAtt (sense UCGUAGUGCUUGUACUUACTT; antisense GUAAGUACAAGCACUACGATT; chemistry not given here)
A549 cells; experiment n = 1
  PERCENTAGE SURVIVAL RELATIVE TO MS, A549, n = 1: 91%
A549 cells; experiment n = 2
  PERCENTAGE SURVIVAL RELATIVE TO MS, A549, n = 2: 39.6%
HCT15 cells; experiment n = 1
  PERCENTAGE SURVIVAL RELATIVE TO MS, HCT15, n = 1: 38.6%
HCT15 cells; experiment n = 2
  PERCENTAGE SURVIVAL RELATIVE TO MS, HCT15, n = 2: 72.3%
MCF7 cells; experiment n = 1
  PERCENTAGE SURVIVAL RELATIVE TO MS, MCF7, n = 1: 98.2%
MCF7 cells; experiment n = 2
  PERCENTAGE SURVIVAL RELATIVE TO MS, MCF7, n = 2: 66.3%
U251 cells
  PERCENTAGE SURVIVAL RELATIVE TO MS, U251, n = 1: 13.5%
PC3 cells [4]
  PERCENTAGE SURVIVAL RELATIVE TO MS, PC3, n = 1: 10%
Cancer cell lines
  cell death / apoptosis in the soft agar assay: induced toxicity consistently in the HCT15 cell line
PC3 cells [5]
  migration of PC3 cells: increases the ability of cancer cells to migrate

## siRNA MS: missense control siRNA, sense UGAGAAUGUGAUGCGCGUCTT, antisense GACGCGCAUCACAUUCUCATT (chemistry not given here)
[6]; HCT15, A549, SKOV3, DU145 and U251 cells
  mRNA levels of interferon response genes OAS1 and GBP1: does not increase mRNA levels of interferon response genes
[6]; PC3 and A498 cells
  mRNA levels of interferon response genes OAS1 and GBP1: Some increase in mRNA of interferon response genes
ELAV-1
  expression of ELAV-1: incapable of decreasing the expression ELAV-1
